This is an account of results in patent publication US7078428B2, “Isoindolone derivatives, preparation process and intermediates of this process, their use as medicaments, and pharmaceutical compositions comprising them” (Sanofi-Aventis Deutschland GmbH, priority 2002, dated 2006).

Structures are written as SMILES. “And” between values parts separate entries of the source, which are not always exact repeats. Identical values can stand only once. Counter-ions that a name gives are not always drawn.

T1 sequence (P19634 whole entry, species assumed): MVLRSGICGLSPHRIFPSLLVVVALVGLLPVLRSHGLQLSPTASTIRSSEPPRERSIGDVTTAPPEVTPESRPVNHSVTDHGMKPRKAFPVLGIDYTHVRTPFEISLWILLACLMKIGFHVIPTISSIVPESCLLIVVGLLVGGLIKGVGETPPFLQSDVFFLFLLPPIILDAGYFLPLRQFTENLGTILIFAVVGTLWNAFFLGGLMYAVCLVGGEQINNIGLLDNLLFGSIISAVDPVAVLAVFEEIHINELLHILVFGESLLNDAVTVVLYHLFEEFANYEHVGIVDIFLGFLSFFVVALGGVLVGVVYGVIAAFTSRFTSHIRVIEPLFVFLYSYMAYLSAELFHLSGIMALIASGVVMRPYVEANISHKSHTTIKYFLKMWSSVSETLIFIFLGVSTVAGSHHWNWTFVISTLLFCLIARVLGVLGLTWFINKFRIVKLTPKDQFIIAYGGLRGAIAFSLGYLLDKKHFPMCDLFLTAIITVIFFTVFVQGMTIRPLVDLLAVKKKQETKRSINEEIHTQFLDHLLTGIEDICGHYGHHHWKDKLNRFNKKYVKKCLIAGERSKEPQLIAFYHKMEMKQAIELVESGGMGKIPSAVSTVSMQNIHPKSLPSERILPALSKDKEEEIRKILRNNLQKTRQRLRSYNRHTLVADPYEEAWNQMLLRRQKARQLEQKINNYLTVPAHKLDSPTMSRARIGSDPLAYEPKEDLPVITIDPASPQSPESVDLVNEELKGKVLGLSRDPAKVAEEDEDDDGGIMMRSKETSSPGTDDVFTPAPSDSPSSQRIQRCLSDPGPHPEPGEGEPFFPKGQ

The assay addresses T1, NHE1 (Homo sapiens, UniProt P19634).
T1 construct: expressed in transfected cells
The assay can be described thus: NHE inhibition FLIPR test (intracellular pH recovery, BCECF) in transfected LAP-1 cells. It counts as cell-based. Particulars: transfected cell line (parental LAP-1) expressing the NHE-1 subtype, pHi recovery after acidification. On the procedure: The NHE inhibitory activities (IC50 values) of the compounds according to the invention were determined by a FLIPR test.
The test is performed in the FLIPR (Fluorescent Imaging Plate Reader) equipped with clear-bottomed and black-walled 96-well microtitration plates.
The growth medium for the transfected cells (Iscove +10% foetal calf serum) also comprises G418 as selection antibiotic to ensure the presence of transfected sequences.
The actual test begins by eliminating the growth medium and adding 100 μl of loading buffer per well (5 μM of BCECF-AM [2′,7′-bis(2-carboxyethyl)-5-(6)-carboxyfluoresceine acetoxymethyl ester] in 20 mM of NH4Cl, 115 mM of choline chloride, 1 mM of CaCl2, 5 mM of KCl, 20 mM of HEPES and 5 mM of glucose; pH 7.4 (adjusted with KOH). The cells are then incubated for 20 minutes at 37° C. This incubation results in the loading of the fluorescent dye into the cells, the fluorescence intensity of which depends on the pHi, and on the NH4Cl, which results in a slight basification of the cells.
The precursor BCECF-AM, a non-fluorescent dye, is, as an ester, capable of crossing the membrane. The actual dye, which is incapable of crossing the membrane, is released inside the cell by esterases.
After this 20-minute incubation, the loading buffer, which comprises NH4Cl and free BCECF-AM, is removed by washing three times in the cell washing device (Tecan Columbus), each wash being performed with 400 μl of washing buffer (133.8 mM of choline chloride, 4.7 mM of KCl, 1.25 mM of MgCl2, 1.25 mM of CaCl2, 0.97 mM of K2HPO4, 0.23 mM of KH2PO4, 5 mM of HEPES and 5 mM of glucose; pH 7.4 (adjusted with KOH)). The residual volume remaining in the wells is 90 μl (possibly between 50 and 125 μl). This washing step removes the free BCECF-AM and results in an intracellular acidification (pHi of 6.3-6.4) due to the removal of the external ammonium ions.
As the equilibrium of the intracellular ammonium with the aqueous ammonia and the protons, by removal of the extracellular ammonium and by the subsequent immediate crossing of the aqueous ammonia across the cell membrane, is disrupted, the washing process results in intracellular protons remaining, which is the cause of the intracellular acidification. This acidification can result finally in the death of the cells if it lasts long enough. It is important here for the washing buffer to be free of sodium (<1 mM), otherwise the extracellular sodium ions would result in an immediate increase in the pHi on account of the activity of the cloned NHE isoforms. It is also important for all the buffers used (loading buffer, washing buffer and regeneration buffer) not to contain any HCO3-ions, otherwise the presence of bicarbonate would result in the activation of bicarbonate-dependent systems that disrupt the pHi regulation, which systems are contained in the LAP-1 parental cell line.
The microtiter plates containing acidified cells are then transferred (up to 20 minutes after the acidification) to the FLIPR. In the FLIPR, the intracellular fluorescent dye is activated with light of a wavelength of 488 nm, which is generated by an argon laser, and the measuring parameters (laser power, illumination time and diaphragm of the […] camera integrated into the FLIPR) are chosen such that the average value of the fluorescent signal per well is between 30,000 and 35,000 relative fluorescence units.
The actual measurement in the FLIPR starts with a photograph being taken by the CCD camera every two seconds under software control. After 10 seconds, the increase in the intracellular pH is initiated by adding 90 μl of regeneration buffer (133.8 mM of NaCl, 4.7 mM of KCl, 1.25 mM of MgCl2, 1.25 mM of CaCl2, 0.97 mM of K2HPO4, 0.23 mM of KH2PO4, 10 mM of HEPES and 5 mM of glucose; pH 7.4 (adjusted with NaOH)) using a 96-well pipette device incorporated into the FLIPR. Some wells, to which is added pure regeneration buffer, serve as positive controls (100% NHE activity). […]
As to `N=C(N)NC(=O)CC1c2cc(F)c(F)cc2C(=O)N1CCC(F)(F)F` (racemic) [Example 40, (R)-N-{2-[5,6-Difluoro-3-oxo-2-(3,3,3-trifluoro-propyl)-2,3-dihydro-1H-isoindol-1-yl]-acetyl}-guanidine and (S)-N-{2-[5,6-Difluoro-3-oxo-2-(3,3,3-trifluoro-propyl)-2,3-dihydro-1H-isoindol-1-yl]-acetyl}-guanidine], the IC50 came to 29 nM. As for `[H]/N=C(\N)NC(=O)CC1c2cc(Cl)c(Cl)cc2C(=O)N1CC1CC1` (racemic) [Example 42, (R)-N-[2-(5,6-Dichloro-2-cyclopropylmethyl-3-oxo-2,3-dihydro-1H-isoindol-1-yl)-acetyl]-guanidine and (S)-N-[2-(5,6-Dichloro-2-cyclopropylmethyl-3-oxo-2,3-dihydro-1H-isoindol-1-yl)-acetyl]-guanidine], the IC50 came to 18 nM. The value for `NC(N)=NC(=O)CC1c2cc(Cl)c(Cl)cc2C(=O)N1C1CC1` (racemic) [Example 43, (R)-N-[2-(5,6-Dichloro-2-cyclopropyl-3-oxo-2,3-dihydro-1H-isoindol-1-yl)-acetyl]-guanidine and (S)-N-[2-(5,6-Dichloro-2-cyclopropyl-3-oxo-2,3-dihydro-1H-isoindol-1-yl)-acetyl]-guanidine] was 30 nM. The value for `CC(C(=O)NC(=N)N)C1c2ccccc2C(=O)N1CCO` (single isomer, unassigned) [Example 33] was 3600 nM and 4700 nM; that for `[H]/N=C(\N)NC(=O)CC1c2cc(S(C)(=O)=O)ccc2C(=O)N1CC(F)(F)F` (single isomer, unassigned) [Example 36a] was 524 nM; that for `[H]/N=C(\N)NC(=O)CC1c2cc(S(C)(=O)=O)ccc2C(=O)N1CC(F)(F)F` (single isomer, unassigned) [Example 36b] was 6 nM. The value for `NC(N)=NC(=O)CC1c2cc(C(F)(F)F)ccc2C(=O)N1CC1CC1` (single isomer, unassigned) [Example 38a] was 249 nM. As for `NC(N)=NC(=O)CC1c2cc(C(F)(F)F)ccc2C(=O)N1CC1CC1` (single isomer, unassigned) [Example 38b], the half-maximal inhibitory concentration (IC50) stood at 5 nM.

Consider `N=C(N)NC(=O)CC1c2cc(F)c(F)cc2C(=O)N1CCC(F)(F)F` (single isomer, unassigned) [Example 40a], for which the IC50 stood at 263 nM. Take `N=C(N)NC(=O)CC1c2cc(F)c(F)cc2C(=O)N1CCC(F)(F)F` (single isomer, unassigned) [Example 40b]: the IC50 is 63 nM.

Turning to `[H]/N=C(\N)NC(=O)CC1c2cc(Cl)c(Cl)cc2C(=O)N1CCC(F)(F)F` (single isomer, unassigned) [Example 41b], the concentration for half-maximal inhibition (IC50) is 41 nM. As to `[H]/N=C(\N)NC(=O)CC1c2cc(Cl)c(Cl)cc2C(=O)N1CCC(F)(F)F` (single isomer, unassigned) [Example 41c], the IC50 was 19 nM. `[H]/N=C(\N)NC(=O)CC1c2cc(Cl)c(Cl)cc2C(=O)N1CC1CC1` (single isomer, unassigned) [Example 42a]: the IC50 worked out at 66 nM. The value for `[H]/N=C(\N)NC(=O)CC1c2cc(Cl)c(Cl)cc2C(=O)N1CC1CC1` (single isomer, unassigned) [Example 42b] was 3 nM; that for `NC(N)=NC(=O)CC1c2cc(Cl)c(Cl)cc2C(=O)N1C1CC1` (single isomer, unassigned) [Example 43a] was 53 nM; that for `NC(N)=NC(=O)CC1c2cc(Cl)c(Cl)cc2C(=O)N1C1CC1` (single isomer, unassigned) [Example 43b] was 442 nM. The value for `NC(N)=NC(=O)CC1c2cc(Cl)c(Cl)cc2C(=O)N1CC(F)(F)F` (single isomer, unassigned) [Example 44b] was 13 nM; that for `NC(N)=NC(=O)CC1c2cc(Cl)c(Cl)cc2C(=O)N1CC(F)(F)F` (single isomer, unassigned) [Example 44c] was 260 nM; that for `NC(N)=NC(=O)CC1c2cc(C(F)(F)F)ccc2C(=O)N1CC(F)(F)F` (single isomer, unassigned) [Example 46a] was 19 nM. For the compound `NC(N)=NC(=O)CC1c2cc(C(F)(F)F)ccc2C(=O)N1CC(F)(F)F` (single isomer, unassigned) [Example 46b], the IC50 worked out at 0.2 nM.

For the compound `NC(N)=NC(=O)CC1c2ccc(C(F)(F)F)cc2C(=O)N1CC(F)(F)F` (single isomer, unassigned) [Example 47a], the IC50 was 70 nM. The value for `NC(N)=NC(=O)CC1c2ccc(C(F)(F)F)cc2C(=O)N1CC(F)(F)F` (single isomer, unassigned) [Example 47b] was 5790 nM. The value for `NC(N)=NC(=O)CC1c2cc(C(F)(F)F)ccc2C(=O)N1CC(F)(F)F` (single isomer, unassigned) [Example 48, N-{2-[3-Oxo-2-(2,2,2-trifluoro-ethyl)-6-trifluoromethyl-2,3-dihydro-1H-isoindol-1-yl]-acetyl}-guanidine hydrogen fumarate] was 0.2 nM; that for `NC(N)=NC(=O)CC1c2cc(Cl)ccc2C(=O)N1CCC(F)(F)F` (single isomer, unassigned) [Example 49a] was 1 nM. Turning to `NC(N)=NC(=O)CC1c2cc(Cl)ccc2C(=O)N1CCC(F)(F)F` (single isomer, unassigned) [Example 49b], the half-maximal inhibitory concentration (IC50) stood at 13 nM. The value for `NC(N)=NC(=O)CC1c2ccc(Cl)cc2C(=O)N1CCC(F)(F)F` (single isomer, unassigned) [Example 50a] was 9 nM; that for `NC(N)=NC(=O)CC1c2ccc(Cl)cc2C(=O)N1CCC(F)(F)F` (single isomer, unassigned) [Example 50b] was 6 nM. The value for `NC(N)=NC(=O)CC1c2cc(C(F)(F)F)ccc2C(=O)N1CCC(F)(F)F` (single isomer, unassigned) [Example 51a] was 6 nM; that for `NC(N)=NC(=O)CC1c2cc(C(F)(F)F)ccc2C(=O)N1CCC(F)(F)F` (single isomer, unassigned) [Example 51b] was 171 nM. The value for `NC(N)=NC(=O)CC1c2ccc(C(F)(F)F)cc2C(=O)N1CCC(F)(F)F` (single isomer, unassigned) [Example 52a] was 50 nM. As to `NC(N)=NC(=O)CC1c2ccc(C(F)(F)F)cc2C(=O)N1CCC(F)(F)F` (single isomer, unassigned) [Example 52b], the half-inhibitory concentration (IC50) came to 671 nM. Take `NC(N)=NC(=O)CC1c2cc(Cl)ccc2C(=O)N1CCCC(F)(F)F` (single isomer, unassigned) [Example 53a]: the IC50 amounted to 83 nM. On to `NC(N)=NC(=O)CC1c2cc(Cl)ccc2C(=O)N1CCCC(F)(F)F` (single isomer, unassigned) [Example 53b], for which the IC50 came to 16 nM. The value for `NC(N)=NC(=O)CC1c2ccc(Cl)cc2C(=O)N1CCCC(F)(F)F` (single isomer, unassigned) [Example 54a] was 944 nM; that for `NC(N)=NC(=O)CC1c2ccc(Cl)cc2C(=O)N1CCCC(F)(F)F` (single isomer, unassigned) [Example 54b] was 48 nM. The value for `NC(N)=NC(=O)CC1c2cc(Cl)ccc2C(=O)N1CC1CC1` (single isomer, unassigned) [Example 55a] was 2 nM; that for `NC(N)=NC(=O)CC1c2cc(Cl)ccc2C(=O)N1CC1CC1` (single isomer, unassigned) [Example 55b] was 20 nM.

Broadly, the IC50 is the concentration that inhibits the measured activity by half.
